Results: patent US20150056702A1, “METHOD AND KIT FOR CULTURING STEM CELLS” (China Medical University, priority 2013, published 2015)

Legend:
Oct4 = assay: Real-time PCR, Oct4 gene expression in ES cells; format: cell-based, mouse; settings: for Oct4 gene expression level: ES cells, control group = 100%
Protocol: (§1) The following steps were conducted in order to culture ES cells: • (1) preparing a stem cell medium: DMEM+15% heat-inactivated FBS+NEAA (0.1 mM)+L-glutamine (2 mM)+β-mercaptoethanol (0.2 mM); • (2) preparing a BP-containing solution: dissolving BP into DMSO to form a BP-containing solution (100 mg/ml), and storing the solution at −20° C.; • (3) adding different amounts of the BP-containing solution in step (2) into the stem cell medium in step (1) to form different BP-containing mediums, wherein the amount of BP were about 5, 10, 20 or 40 μg per milliliter of the stem cell medium respectively (i.e. the experimental group mediums: BP5, BP10, BP20 and BP40); and • (4) using the BP-containing medium of in step (3) to culture a ES cell (retrieved from the embryos in the blastula stage of 129sv/J mice) at 37° C., 5% CO2 and 95% humidity on the feeder cells provided by Example 1.
An experimental group medium (BP5, BP10, BP20 or BP40) and a control group medium (without BP) were added respectively to perform the following steps. ES cells were cultured with an initial density of 1×10^4 per well in a 6-well culture dish. The medium was removed until the cells growth to be about 70 to 80% confluence, and then 1 ml TRIzol (Invitrogen) was added into each well. The cells were incubated for 5 minutes, and then was scraped by a spatula and placed into a 1.5 ml microtube to be lysed adequately. Chloroform (0.2 ml) was added into the microtubes. The mixture was shaken up and down for 15 seconds, and then incubated at room temperature for 2 to 3 minutes. Thereafter, the mixture was centrifuged at 12000 rpm at 4° C. for 15 minutes, and the supernatant was removed into another 1.5 ml microtube and isopropanol (0.5 ml) was added into the microtube with well mixing. The mixture was incubated at room temperature for 10 minutes and then centrifuged at 12000 rpm at 4° C. for 10 minutes. The supernatant was then removed. One ml of 70% ethanol containing DEPC.H2O was used to wash the remaining sediment. The sediment was centrifuged at 7500 rpm at 4° C. for 5 minutes. The supernatant was removed. The sediment was dried by vacuum suction. The dried samples were dissolved in about 0.01 to 0.02 ml of DEPC.H2O to obtain the experimental group RNA and control group RNA. Both groups were stored at −80° C.
The OD value of RNA samples in both groups obtained from the above Experiment I were measured at a wavelength of 260 nm (RNA: OD260=1 for a 40 μg/mL solution). Each RNA sample (2 μl) was added with RNA-free water until the volume of the sample reached 10 μl. Two μl oligo (dT) (100 μg/ml) was added into each sample, and the samples were incubated at 65° C. for 5 minutes. Then, the samples were immediately placed on ice and spun down. Next, 6.5 μl of a reaction solution [4 μl of 5× buffer+1 μl of 0.1 M DTT+1 μl of RNase out+0.5 μl of SSIII (Invitrogen)] was added into each of the samples, and the samples were incubated at 50° C. for about 30 to 60 minutes and at 75° C. for 15 minutes to obtain the experimental group cDNA and control group cDNA. Both groups were stored at −80° C.
This experiment was used to detect the expression levels of ES cell-related genes, i.e., Oct4 and Sox2, etc. […] The cycle threshold (CT) values were measured.

ES cells = assay: Examination of cell survival (MTT assay); format: cell-based, mouse; settings: for relative cell survival rate: control = 100
Protocol: as §1
In this example, 3-(4,5-dimethylthiazol-2-yl)-2,5-diphenyl tetrazolium bromide (MTT) was used to determine if the cell survival rate of stem cells will be influenced when BP was served as a substitute for LIF.
MTT is a water-soluble tetrazolium salt which can react in the mitochondrial respiratory chain in living cells, to metabolize and reduce the tetrazolium bromide shown in the structure of MTT and to form an water-insoluble purple crystal formazan under the reaction of succinate dehydrogenase (SDH) and cytochrome c (cyt c). The amount of the produced crystal is directly proportional to the number of living cells (because the SDH will disappear from dead cells and the MTT cannot be reduced). Furthermore, mitochondrium is an organelle in cells most sensitive to the environment, and thus, the MTT assay could serve as a marker of the survival rate of cells treated by a drug.
An experimental group medium (BP5, BP10, BP20 or BP40) and a control group medium (without BP) were added respectively into a 96-well micro-culture plate to culture ES cells with an initial density of 5×10^3 per well for 24 to 72 hours. Then, 10 μl of 0.5 mg/ml MTT (Sigma) was added into each well and the cells were incubated in an incubator at 37° C. and 5% CO2 for 2 to 4 hours. The medium was removed, and 100 μl of DMSO was added into each well and maintained at 37° C. for 10 minutes. The absorbances of the samples were measured at a wavelength of 570 nm to obtain the data of the experimental group (with BP) and control group (without BP). The absorbance of control group was served as a reference to calculate the relative cell survival rate of each experimental group.

## CCCC=C1OC(=O)c2ccccc21 [BP, n-butylidenephthalide]
Oct4; BP5 medium (about 5 μg BP/ml)
  Oct4 gene expression level: 119%
Oct4; BP10 medium (about 10 μg BP/ml)
  Oct4 gene expression level: 419%
Oct4; BP20 medium (about 20 μg BP/ml)
  Oct4 gene expression level: 258%
Oct4; BP40 medium (about 40 μg BP/ml)
  Oct4 gene expression level: 144%
Oct4; BP-containing ES cell culture medium vs control group, result in words
  gene expression level of Oct4: significantly up-regulated
ES cells; BP5 medium (about 5 μg BP/ml), 24 hours
  relative cell survival rate: 95.212
ES cells; BP5 medium (about 5 μg BP/ml), 72 hours
  relative cell survival rate: 99.816
ES cells; BP10 medium (about 10 μg BP/ml), 24 hours
  relative cell survival rate: 98.092
ES cells; BP10 medium (about 10 μg BP/ml), 72 hours
  relative cell survival rate: 93.848
ES cells; BP20 medium (about 20 μg BP/ml), 24 hours
  relative cell survival rate: 95.076
ES cells; BP20 medium (about 20 μg BP/ml), 72 hours
  relative cell survival rate: 92.399
ES cells; BP40 medium (about 40 μg BP/ml), 24 hours
  relative cell survival rate: 97.550
ES cells; BP40 medium (about 40 μg BP/ml), 72 hours
  relative cell survival rate: 90.128
ES cells; addition of BP into the ES cell medium, result in words
  survival rate of stem cells: will not affect the survival rate of stem cells
